Like-named read-outs stand apart in the source and are kept apart here.
How the values were obtained:
[1] = tested on: toxic apoE fragments (22 kDa) on embryonic chick sympathetic neurons; experiment: Protection of sympathetic neurons against toxic apoE fragments (vital dye survival count); assay type: cell-based, chicken; details: 10 min pre-incubation with compound, then toxic 22 kDa apoE fragments, overnight, read-out: C50, the concentration required to prevent 50% cell death as compared to control
From the text: The purified apoE was then digested with thrombin and the resulting fragments separated by HPLC gel filtration chromatography (Bio SEC-Bio Rad). After buffer exchange and lyophilization, the purified 22 kDa fragment was subjected to amino acid analysis. For neurotoxicity studies, lumbar sympathetic chain ganglia were isolated from embryonic day nine chicken embryos (Spafas, Inc., Roanoke, Ill.) under sterile conditions in unsupplemented Ham's F12 medium (Sigma). The dissected chains were exposed to trypsin (0.25%) for 20 minutes at 37° C. The trypsin was inactivated by addition of fetal bovine serum. The chains were washed three times with medium and then triturated with flamed Pasteur pipettes to dissociate the cells. The cells were resuspended in Neurobasal medium (Gibco) and plated into 96-well plates pretreated with poly-ornithine. Dishes were incubated at 37° C. with 5% CO2/95% air. Following overnight incubation, the cells were treated with a range of concentrations of various compounds diluted in F12 medium supplemented with 100 μM putrescine, 20 nM progesterone, 100 μg/ml human transferrin, 30 nM selenium and 1% antibiotics (penicillin-streptomycin). The neuronal cells were pre-incubated for 10 min at 37° C. with a predetermined concentration of compound. The toxic fragments were then added to the culture medium while controls used the corresponding vehicle without the toxic fragments. After overnight incubation, the cells were labeled with a vital dye (5-carboxyfluorescein diacetate, acetoxymethyl ester, Molecular Probes, Eugene, Oreg.) for 30 minutes. The wells were washed with fresh F12 medium and images of the stained cells were collected from each well using a Diaphot inverted fluorescence microscope connected to a MacIntosh IIfx computer equipped with a Framegrabber video card.

[2] = tested on: apoE peptide toxicity (141-149 domain); details: cited from earlier work; for effect on apoE peptide-mediated toxicity: polyanionic glycosaminoglycans
[3] = tested on: E3- or E4-derived 22 kDa apoE fragment on embryonic chick sympathetic neurons; experiment: Effects of apoE 22 kDa peptides on sympathetic neurons in culture, with dermatan sulfate pre-incubation; assay type: cell-based, chicken; details: 4 μM dermatan sulfate, 10 min pre-incubation; overnight exposure to E3- or E4-derived 22 kDa fragment
Experimental: Since the 22 kDa fragment contains the domain associated with toxicity and corresponds to the major N-terminal proteolytic fragment of apoE, assessment of the efficacy of a compound can first be screened by measuring the inhibition of the 22 kDa toxicity in vitro. The 22 kDa thrombolytic cleavage fragment product of apoE is neurotoxic and is purified from medium of HEK cells transfected with the gene for human apoE4. Neuronal toxicity is then assessed using dissociated embryonic chick sympathetic neurons in 96 well microtiter plates. Following the addition of the fragments, the cultures are incubated overnight. Viability is then assessed by vital dye staining.
Transfected HEK cells are cultured as previously described (LaDu, M. J., et al., J. Biol. Chem. 258:12348-54 (1983)). The apoE is concentrated from conditioned medium by ultrafiltration (10 kDa cut-off membrane, Amicon) followed by heparin column chromatography (heparin-coupled agarose beads, Sigma). […] The wells are washed with fresh F12 medium and images of the stained cells are collected from each well by using a Diaphot inverted fluorescence microscope connected to a Macintosh IIfx computer equipped with a Framegrabber video card. The number of labeled neurons is quantified from the stored images with NIH Image software (version 1.57).

[4] = Gallus gallus, Sympathetic neuron

Compound	EC50 [1]	other results
O=S(=O)(O)c1ccc2c(N=Nc3ccc(S(=O)(=O)O)c4ccccc34)c(O)c(S(=O)(=O)O)cc2c1 [amaranth]	25 µM	
heparin [reference compound]		effect on apoE peptide-mediated toxicity [2]: ablation of peptide-mediated toxicity
O=C(O)C1=CC(=C(c2ccc(O)c(C(=O)O)c2)c2ccc(O)c(C(=O)O)c2)C=CC1=O [aurintricarboxylic acid]		EC50 [1, 4]: 11 µM
aniline blue	25 µM	
Cc1c(C2(c3cc(Br)c(O)c(Br)c3C)OS(=O)(=O)c3ccccc32)cc(Br)c(O)c1Br [bromocresol green]	25 µM	
COc1cc(-c2ccc(N=Nc3c(S(=O)(=O)O)cc4cc(S(=O)(=O)O)cc(N)c4c3O)c(OC)c2)ccc1N=Nc1c(S(=O)(=O)O)cc2cc(S(=O)(=O)O)cc(N)c2c1O [direct blue 15]	18 µM	
CCOc1ccc(Nc2ccc(C(=C3C=CC(=[N+](CC)Cc4cccc(S(=O)(=O)[O-])c4)C=C3)c3ccc(N(CC)Cc4cccc(S(=O)(=O)O)c4)cc3)cc2)cc1 [Coomassie brilliant blue R-250]	35 µM	
Nc1c(/N=N/c2ccc(-c3ccc(/N=N/c4cc(S(=O)(=O)O)c5ccccc5c4N)cc3)cc2)cc(S(=O)(=O)O)c2ccccc12 [congo red]		EC50 [1, 4]: 25 µM
O=S(=O)(O)c1ccccc1N=Nc1c(S(=O)(=O)O)cc2cc(S(=O)(=O)O)c(N=Nc3ccccc3S(=O)(=O)O)c(O)c2c1O [sulfonazo III]	45 µM	
O=S(=O)(O)c1ccc(N=Nc2ccc(N=Nc3c(O)c(S(=O)(=O)O)cc4cc(S(=O)(=O)O)ccc34)c(S(=O)(=O)O)c2)cc1 [ponceau S]	5 µM	
Cc1cc(-c2ccc(N=Nc3cc(S(=O)(=O)O)c4ccccc4c3N)c(C)c2)ccc1N=Nc1cc(S(=O)(=O)O)c2ccccc2c1N [benzopurpurin 4b]	50 µM	
heparan sulfate	1 µM	effect on apoE peptide-mediated toxicity [2]: ablation of peptide-mediated toxicity
O=S(=O)(O)c1ccc(N=Nc2ccc(N=Nc3c(O)ccc4ccccc34)c(S(=O)(=O)O)c2)cc1 [biebrich scarlet]	40 µM	
O=S(=O)(O)c1ccc(N=C2C=CC(=C(c3ccc(Nc4ccc(S(=O)(=O)O)cc4)cc3)c3ccc(Nc4ccc(S(=O)(=O)O)cc4)cc3)C=C2)cc1 [methyl blue]	20 µM	
dextran sulfate [dextran sulfate (5 kDa)]	0.8 µM	
E211-243: apoE peptide containing a second heparin-binding site but lacking the 141-149 sequence (GERLRARMEEMGSRTRDRLDEVKEQVAEVRAKL; UniProt P02649 229-261, looked up, fragment) [reference compound]		bioactivity (toxicity) of apoE peptide ([2]; peptide with second heparin-binding site, lacking the 141-149 sequence): inactive

Compound	EC50 [1]	other results
COc1cc(-c2ccc(N=Nc3ccc4c(S(=O)(=O)O)cc(S(=O)(=O)O)c(N)c4c3O)c(OC)c2)ccc1N=Nc1ccc2c(S(=O)(=O)O)cc(S(=O)(=O)O)c(N)c2c1O [Chicago sky blue 6b]	15 µM	
dermatan sulfate		toxicity of 22 kDa apoE fragment in treated neurons [3]: toxicity is completely ablated
chondroitin sulfate		effect on apoE peptide-mediated toxicity [2]: ablation of peptide-mediated toxicity
Cc1cc(-c2ccc(/N=N/c3c(S(=O)(=O)O)cc4cc(S(=O)(=O)O)cc(N)c4c3O)c(C)c2)ccc1/N=N/c1c(S(=O)(=O)O)cc2cc(S(=O)(=O)O)cc(N)c2c1O [trypan blue]		EC50 [1, 4]: 20 µM
O=S1(=O)OC(c2cc(Br)c(O)c(Br)c2)(c2cc(Br)c(O)c(Br)c2)c2ccccc21 [bromophenol blue]	16 µM	
CCN(Cc1cccc(S(=O)(=O)O)c1)c1ccc(C(=C2C=CC(=[N+](CC)Cc3cccc(S(=O)(=O)[O-])c3)C=C2)c2ccc(S(=O)(=O)O)cc2)cc1 [light green S.F. yellowish]	40 µM	
Cc1ccc(C(=O)Nc2ccc(S(=O)(=O)O)c3cc(S(=O)(=O)O)cc(S(=O)(=O)O)c23)cc1NC(=O)c1cccc(NC(=O)Nc2cccc(C(=O)Nc3cc(C(=O)Nc4ccc(S(=O)(=O)O)c5cc(S(=O)(=O)O)cc(S(=O)(=O)O)c45)ccc3C)c2)c1 [suramin sodium, reference compound]		EC50 [1, 4]: 5 µM
potassium polyvinyl sulfate	0.035 µM	
pentosan sulfate [reference compound]	1.5 µM	
Nc1c(S(=O)(=O)O)cc(Nc2ccc(Nc3nc(Cl)nc(Nc4ccccc4S(=O)(=O)O)n3)c(S(=O)(=O)O)c2)c2c1C(=O)c1ccccc1C2=O [cibacron blue]		EC50 [1, 4]: 20 µM
O=C(O)c1cc2ccccc2c(N=Nc2c(O)cc(S(=O)(=O)O)c3ccccc23)c1O [calconcarboxylic acid]	10 µM	
CCOc1ccc(Nc2ccc(C(=C3C=CC(=[N+](CC)Cc4cccc(S(=O)(=O)[O-])c4)C=C3C)c3ccc(N(CC)Cc4cccc(S(=O)(=O)O)c4)cc3C)cc2)cc1 [Coomassie brilliant blue G-250]	40 µM	
O=C1OC(c2ccc(O)c(S(=O)(=O)O)c2)(c2ccc(O)c(S(=O)(=O)O)c2)c2c(Br)c(Br)c(Br)c(Br)c21 [sulfobromophthalein]		EC50 [1, 4]: 32 µM
Cc1ccc2nc(-c3ccc(N=NNc4ccc(-c5nc6ccc(C)c(S(=O)(=O)O)c6s5)cc4)cc3)sc2c1S(=O)(=O)O [thiazol yellow G]	25 µM	
Cc1cc(-c2ccc(N=Nc3ccc4c(S(=O)(=O)O)cc(S(=O)(=O)O)c(N)c4c3O)c(C)c2)ccc1N=Nc1ccc2c(S(=O)(=O)O)cc(S(=O)(=O)O)c(N)c2c1O [Evan's blue]	8 µM	
